Data set [1] relates to Alternaria alternata. Description: In vitro-Test with Alternaria alternata. Format: cell-based.
Data set [2] relates to Septoria tritici. Description: In vitro-Test with Septoria tritici. The data set is classed as cell-based. To be noted: compound alone.
For data set [3], the system named is Septoria tritici. Description: In vivo preventive Septoria tritici test (wheat). To be noted: 21 days after inoculation. How it is done:
After the spray coating has been dried, the plants are sprayed with a spore suspension of Septoria tritici.
The test is evaluated 21 days after the inoculation.

Data set [4] has as its system Pyricularia oryzae. Format: cell-based.
Data set [5] relates to Venturia inaequalis. Description: In vivo preventive test on Venturia (apples). To be noted: 10 days after inoculation. How it is done:
The test is evaluated 10 days after the inoculation.

Data set [6] has as its system Sphaerotheca fuliginea. Description: In vivo preventive test on Sphaerotheca (cucumbers). To be noted: Table D1, 7 days after inoculation.
Data set [7] relates to fish (Danio rerio) embryos. Description: In vivo ecotoxicity screening test on fish (Danio rerio). To be noted: active compound alone; fish embryos, 96 h, 28.5° C. Here is the method:
with ECxi the Effect Concentration (EC) of each chemical i (in ppm) causing x % effect on the ecotoxicity test endpoint.
For each compound combination, the predicted ECx value is calculated. It is then compared to an experimentally measured value. The ratio of predicted versus measured effect for the combination (thereafter called the Model Deviation Ratio or MDR) is then calculated.
The environmental effect of the compound combinations was measured experimentally in laboratory ecotoxicity screening studies with fish (Danio rerio). […] Mortality was recorded after 96 h for each tested concentration and a reference control. […] Then, the MDR values were calculated.
• Solvent: 0.5% by weight dimethyl sulfoxide
This concentrate is then diluted with water to the desired a.i. concentration, leading to a maximal solvent concentration of 0.5% by weight. The compounds alone and the combinations were tested for five increasing concentrations between 0.01 and 1000 ppm a.i., (e.g. 0.1, 1.0, 10 and 100 ppm a.i). For the combinations, compounds A and B were mixed in a weight ratio of 5:1 to 1:5 and five increasing concentrations were tested for each ratio.

In data set [8] the test system is Puccinia triticina. Description: In vivo preventive Puccinia triticina test (wheat). Conditions: 8 days after inoculation. How it is done: After the spray coating has been dried, the plants are sprayed with a spore suspension of Puccinia triticina.
(§1) The test is evaluated 8 days after the inoculation.

Data set [9] deals with Blumeria graminis f.sp. hordei. Description: In vivo preventive Blumeria test (barley). To be noted: Table F1, 7 days after inoculation.
In data set [10] the test system is Ustilago avenae. Description: In vitro-Test with Ustilago avenae. The data set is classed as cell-based. Conditions: 5 ppm, compound alone.
The test system of data set [11] is Pyrenophora teres. Description: In vitro-Test with Pyrenophora teres. The data set is classed as cell-based.
Data set [12] relates to Leptosphaeria nodorum. Description: In vivo preventive Leptosphaeria nodorum test (wheat). To be noted: Table G1, 8 days after inoculation. Here is the method:
After the spray coating has been dried, the plants are sprayed with a spore suspension of Leptosphaeria nodorum.
as §1

The test system of data set [13] is Phakopsora pachyrhizi. Description: In vivo preventive test on Phakopsora (soybeans). To be noted: Table C3, 7 days after inoculation.

Values joined by “and” are separate entries in the source; they are usually repeats but may differ in a detail not shown here. Identical values can stand only once. Like-named read-outs stand apart in the source and are kept apart here.

`CC(C)(C)[C@@H](O)[C@@H](Cc1ccc(Cl)cc1)n1cncn1` (racemic) [Example 1.015, paclobutrazol]: the Efficacy % in data set [1] (1 ppm) is given as 0%; in data set [2] (1 ppm), 13%.

Turning to `CC(C)(C)C(O)(CCc1ccc(Cl)cc1)Cn1cncn1` (stereo not shown) [Example 1.021, tebuconazole], the Efficacy % was 19% in data set [1] (0.04 ppm); 24% in [1] (0.2 ppm); 36% in data set [1] (1 ppm); 87% in data set [4] (0.2 ppm); 87% and 89% in data set [4] (1 ppm). Moreover, the “Efficacy in % found” value in data set [3] (25 ppm a.i.) came to 0%; in [3] (50 ppm a.i.), 0%; in [3] (100 ppm a.i.), 0%; in data set [5] (Table E1, 2.5 ppm a.i.), 4%; in data set [5] (Table E1, 5 ppm a.i.), 34%; in data set [5] (Table E1, 10 ppm a.i.), 44%. Moreover, the “Efficacy in % found” value in [6] (2.5 ppm a.i.) is reported as 37%; in data set [6] (5 ppm a.i.) it was 69%; in [6] (10 ppm a.i.), 83%; in [8] (25 ppm a.i.), 22%; in data set [8] (50 ppm a.i.) it was 78%; in [8] (100 ppm a.i.), 89%. Further, the “Ecotoxicity LC50-96 h found” value in data set [7] turned out to be 19.7 ppm a.i.

On to `O=C(NCCc1ncc(C(F)(F)F)cc1Cl)c1ccccc1C(F)(F)F` [Example 2.005, fluopyram], for which the “Efficacy in % found” value is 38% and 29% in data set [3] (30 ppm a.i.); 88% and 71% in data set [3] (60 ppm a.i.); 0% in [9] (15 ppm a.i.); 0% in data set [9] (30 ppm a.i.); 29% in [9] (60 ppm a.i.); 0% in [8] (15 ppm a.i.). Moreover, the “Efficacy in % found” value is listed as 0% in data set [8] (30 ppm a.i.); 0% in [8] (60 ppm a.i.); 0% in data set [8] (Table H1, 15 ppm a.i.); 0% in [8] (Table H1, 30 ppm a.i.); 33% in data set [8] (Table H1, 60 ppm a.i.). Also, the “Ecotoxicity LC50-96 h found” value in data set [7] is given as over 200 ppm a.i. Besides, the Efficacy % in [2] (0.04 ppm) is 43% and 22%; in data set [2] (0.2 ppm), 93% and 67%; in [10] it was 0%.

As to `CON=C(C(=O)OC)c1ccccc1CON=C(C)c1cccc(C(F)(F)F)c1` [Example 3.020, trifloxystrobin], the pest or weed control at 2.5 ppm in data set [3] (Zymoseptoria tritici, 504 h, 2.5 ppm a.i., read-out: Efficacy in % found) stood at 29%; in [8] (Puccinia triticina, 192 h, Table H1, 2.5 ppm a.i., read-out: Efficacy in % found), 0%. The pest or weed control at 5 ppm in [3] (Zymoseptoria tritici, 504 h, 5 ppm a.i., read-out: Efficacy in % found) was determined as 29%; in data set [8] (Puccinia triticina, 192 h, Table H1, 5 ppm a.i., read-out: Efficacy in % found), 0%. Also, the pest or weed control at 10 ppm in [3] (Zymoseptoria tritici, 504 h, 10 ppm a.i., read-out: Efficacy in % found) was determined as 29%; in data set [8] (Puccinia triticina, 192 h, Table H1, 10 ppm a.i., read-out: Efficacy in % found), 11%. Besides, the Efficacy % in data set [4] (5 ppm) is listed as 98%; in data set [11] (5 ppm), 6%; in data set [2] (5 ppm) it was 90%. In data set [7], the “Ecotoxicity LC50-96 h found” value is recorded as 0.24 ppm a.i.

`O=C(Nc1ccccc1)N(Cc1ccc(Cl)cc1)C1CCCC1` [Example 4.005, pencycuron]: the “Efficacy in % found” value in data set [3] (62.5 ppm a.i.) amounted to 0%; in data set [3] (125 ppm a.i.), 0%; in data set [3] (250 ppm a.i.), 0%; in data set [5] (Table E1, 25 ppm a.i.), 0%; in data set [5] (Table E1, 50 ppm a.i.), 0%; in [5] (Table E1, 100 ppm a.i.), 4%. Further, the “Efficacy in % found” value is recorded as 14% in [12] (62.5 ppm a.i.), 14% in data set [12] (125 ppm a.i.), 29% in [12] (250 ppm a.i.) and 0% in data set [8] (62.5 ppm a.i.). In addition, the Efficacy % stood at 17% in data set [11] (20 ppm), 5% in data set [11] (100 ppm), 8% in data set [2] (20 ppm) and 0% in data set [2] (100 ppm). Also, the “Ecotoxicity LC50-96 h found” value in data set [7] was over 200 ppm a.i.

Take `COCC(=O)N(c1c(C)cccc1C)C(C)C(=O)OC` (stereo not shown) [Example 12.003, metalaxyl]: the “Efficacy in % found” value is given as 0% in data set [3] (250 ppm a.i.); 0% in data set [3] (500 ppm a.i.); 0% in [3] (1000 ppm a.i.); 11% in data set [5] (Table E2, 50 ppm a.i.); 11% in [5] (Table E2, 100 ppm a.i.); 19% in [5] (Table E2, 200 ppm a.i.). Further, the “Efficacy in % found” value in data set [12] (250 ppm a.i.) came to 29%; in [12] (500 ppm a.i.), 0%; in data set [12] (1000 ppm a.i.), 0%; in data set [13] (50 ppm a.i.) it was 0%; in [13] (100 ppm a.i.), 0%; in data set [13] (200 ppm a.i.), 23%. In data set [8] (1000 ppm a.i.), the “Efficacy in % found” value is 30% and 44%. Also, the “Ecotoxicity LC50-96 h found” value in data set [7] is on record as over 200 ppm a.i.

`CCCOc1nc2ccc(I)cc2c(=O)n1CCC` [Example 13.004, proquinazid]: the Efficacy % is 0% in data set [1] (0.8 ppm), 0% in [1] (4 ppm), 55% in [2] (20 ppm) and 28% in data set [2] (100 ppm). Besides, the “Efficacy in % found” value is listed as 0% in data set [3] (250 ppm a.i.); 0% in data set [3] (500 ppm a.i.); 0% in [3] (1000 ppm a.i.); 0% in data set [5] (Table E1, 12.5 ppm a.i.); 0% in data set [5] (Table E1, 25 ppm a.i.); 0% in data set [5] (Table E1, 50 ppm a.i.). Also, the entries for the “Efficacy in % found” value in [12] (250 ppm a.i.), in [12] (500 ppm a.i.) and in [12] (1000 ppm a.i.) were 0%, 14% and 14%, respectively. The “Ecotoxicity LC50-96 h found” value in data set [7] came to 9.89 ppm a.i.

With `O=C(Cc1ccccc1)N/C(=N\OCC1CC1)c1c(C(F)(F)F)ccc(F)c1F` [Example 15.008, cyflufenamid], the “Efficacy in % found” value stood at 14% in data set [3] (250 ppm a.i.); 29% in data set [3] (500 ppm a.i.); 29% in data set [3] (1000 ppm a.i.); 0% in data set [5] (Table E2, 5 ppm a.i.); 0% in data set [5] (Table E2, 10 ppm a.i.); 4% in data set [5] (Table E2, 20 ppm a.i.). For the same compound, the “Efficacy in % found” value in [12] (250 ppm a.i.) was found to be 0%; in data set [12] (500 ppm a.i.) it was 0%; in data set [12] (1000 ppm a.i.), 0%; in data set [8] (250 ppm a.i.) it was 0%; in data set [8] (500 ppm a.i.), 0%; in data set [8] (1000 ppm a.i.) it was 22%. The Efficacy % in data set [4] (4 ppm) is listed as 17%; in [4] (20 ppm), 91%. Besides, in [7], the “Ecotoxicity LC50-96 h found” value is on record as 5.2 ppm a.i.
